What was measured:
α-syn fibrils [1] = target: T1, α-syn fibrils (Homo sapiens, UniProt P37840); assay: Direct fluorescence titration on α-syn fibrils: Kd and Bmax; type: binding
T1 construct: made in house; host or cells: Escherichia coli BL21(DE3)
Text: (§1) In view of the interesting properties of compounds 33–39, we decided to switch to azaindole structures and to study the impact of the position of the nitrogen atom in the 6-membered ring on binding to fibrils. At this step we measured, in addition to the Ki values, the direct binding of each compound to fibrils through the fluorescence in the fraction bound to fibrils, which allowed us to determine the affinity values (Kd, Table 1). […] We therefore prepared a fluorinated derivative of compound 43, i.e., 45.
(§2) Fresh solutions of each tested compound (2.5 mM in DMSO) were diluted in PBS pH 7.4 at concentrations ranging from 0.5 nM to 5 µM in the presence or absence of α-syn, Aβ1-42, or Tau fibrils (200 nM, 500 nM, or 200 nM, respectively) in a final volume of 2 mL. After 1 h incubation at room temperature, the binding of each compound to α-syn, Aβ1-42, or Tau fibrils was assessed by fluorescence measurements using the appropriate excitation/emission wavelengths (i.e., those yielding the highest fluorescence ratio between fibril-bound and free compound). For any given concentration of compound added to the fibrils, the concentrations of compound bound to the fibrils and free in solution were determined on the basis of the measured fluorescence. Since at each point of the titration: Fm = FB × B + FF × (T − B) where Fm is the measured fluorescence of the compound in the presence of fibrils at a given compound concentration T, FB is the specific molar fluorescence of the bound compound, FF is the specific molar fluorescence of the free compound, and B is the concentration of compound bound to the fibrils at any point of the titration. FF was determined by measuring the fluorescence of known compound concentrations in the absence of fibrils. FB was determined by measuring the maximum fluorescence of known compound concentrations upon saturation with α-syn, Aβ1-42, or Tau fibrils.
(§3) Therefore, at each point of the titration, the concentration of bound compound B could be determined and was B = (Fm − FF × T)/FB − FF. The B values thus determined versus the respective concentrations of free compound were analyzed by fitting to the Michaelis-Menten equation.

[2] = target: T2, Tau fibrils (isoform h2N4RTau) (Homo sapiens, UniProt P10636); assay: Direct fluorescence titration on Tau fibrils: Kd and Bmax; type: binding
T2 construct: made in house; host or cells: Escherichia coli BL21(DE3), pET11d vector
T2 sequence (P10636 1-441 isoform P10636-8): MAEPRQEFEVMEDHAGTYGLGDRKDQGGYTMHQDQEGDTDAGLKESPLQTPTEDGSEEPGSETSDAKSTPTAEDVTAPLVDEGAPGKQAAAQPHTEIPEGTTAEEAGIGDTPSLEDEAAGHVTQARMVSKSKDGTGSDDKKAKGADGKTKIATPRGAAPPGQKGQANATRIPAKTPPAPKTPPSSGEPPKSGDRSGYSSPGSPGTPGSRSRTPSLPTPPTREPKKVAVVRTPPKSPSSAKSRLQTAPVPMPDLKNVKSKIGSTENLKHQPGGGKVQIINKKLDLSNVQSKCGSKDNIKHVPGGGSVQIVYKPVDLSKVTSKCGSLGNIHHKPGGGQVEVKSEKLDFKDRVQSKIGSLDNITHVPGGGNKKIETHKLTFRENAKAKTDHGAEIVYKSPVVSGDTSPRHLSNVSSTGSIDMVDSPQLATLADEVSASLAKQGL
Text: as §1, §2, §3

[3] = Octanol–water partition coefficient at pH 7.4 (LogD); type: physicochemical; details: pH 7.4, mean ± SD on three independent experiments
Aβ1-42 fibrils [4] = target: T3, Aβ1-42 fibrils (Homo sapiens, UniProt P05067); assay: Direct fluorescence titration on Aβ1-42 fibrils: Kd and Bmax; type: binding; details: for Kd: direct assay on fibrils, mean ± SD of 3 experiments, read-out: Kd Aβ
T3 construct: Wild-type α-syn and Aβ1-42 were expressed; made in house; host or cells: Escherichia coli BL21(DE3)
T3 sequence (P05067 672-713): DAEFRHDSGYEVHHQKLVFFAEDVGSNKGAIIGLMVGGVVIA
Text: as §1, §2, §3

[5] = target: T2, Tau fibrils (isoform h2N4RTau); assay: Inhibition of thioflavin T binding to Tau fibrils (fluorescence competition), Ki determination; details: calculated from IC50, competition with ThT 500 nM, fibrils 200 nM, mean ± SD of 3 experiments
Experimental: (§4) Wild-type α-syn and Aβ1-42 were expressed in the Escherichia coli strain BL21(DE3) (Stratagene, La Jolla, CA, USA) and purified as described. […] For the Aβ1-42 peptide, the concentration was determined by a fluorometric method using the reactive compound fluorescamine (Sigma, San Jose, CA, USA) that reacts with primary amino groups to form a fluorescent product. The human Tau protein (isoform h2N4RTau) was expressed in the pET11d vector in the Escherichia coli strain BL21(DE3) (Stratagene, La Jolla, CA, USA) and purified as described.
(§5) For assembly into fibrils, α-syn was incubated in 50 mM Tris-HCl, pH 7.5, 150 mM KCl at 37 °C under continuous shaking for 4 days. Lyophilized Aβ1-42 was dissolved in 1,1,1,3,3,3-hexafluoro-2-propanol (HFIP) at a concentration of 0.2 mg/mL and incubated for 24 h at 37 °C to achieve complete solubilization. HFIP was evaporated under a nitrogen stream to obtain a dry film. To start assembly into fibrils, the dry peptide was resuspended in PBS pH 7.4, 10% (v/v) DMSO and incubated at 37 °C without shaking for 3 days. The Tau protein was assembled in fibrils in a PBS buffer containing 1 mM of DTT in the presence of 1/12 heparin (v/v) at 37 °C under shaking. […] Protein fibrils were systematically examined by transmission electron microscopy (TEM) in a Jeol 1400 transmission electron microscope following adsorption onto carbon-coated 200 mesh grids and negative staining with 1% uranyl acetate. The images were recorded with a Gatan Orius CCD camera (Gatan, Pleasanton, CA, USA). Finally, the percentage of α-syn or Aβ1-42 aggregated into fibrils was assessed by pelleting fibrils at 40,000× g for 20 min and by determining the concentration of soluble protein/peptide remaining in the supernatant.
(§6) The samples were incubated for 1 h at room temperature to achieve complete equilibration.

Aβ1-42 fibrils [6] = target: T3, Aβ1-42 fibrils; assay: Inhibition of thioflavin T binding to Aβ1-42 fibrils (fluorescence competition), Ki determination; details: calculated from IC50, competition with ThT 500 nM, fibrils 500 nM, mean ± SD of 3 experiments; read-out: Ki Aβ
Experimental: as §4, §5, §6

Aβ1-42 fibrils [7] = assay: Direct fluorescence titration on Aβ1-42 fibrils: Kd and Bmax; type: binding; details: from Kd values
Text: as §1, §2, §3

α-syn fibrils [8] = target: T1, α-syn fibrils; assay: Inhibition of thioflavin T binding to α-syn fibrils (fluorescence competition), Ki determination; details: calculated from IC50, competition with ThT 500 nM, fibrils 200 nM, mean ± SD of 3 experiments
Experimental: as §4, §5, §6

α-syn in MSA tissues = target: α-syn in MSA tissues; parameters: method as in PMID 38352848; details: cited from earlier work
[9] = density of binding sites, Scatchard analysis
[10] = direct assay on fibrils, mean ± SD of 3 experiments

Row | SMILES | α-syn monomers per 1 compound bound (α-syn fibrils [1]; corresponding to Bmax) | Bmax on α-syn fibrils (α-syn fibrils [1]; [9]) [nmol/µmol α-syn fibrils] | Kd (α-syn fibrils [1]; [10]) [nM] | tau monomers per 1 compound bound ([2]; corresponding to Bmax) [tau monomers] | Bmax on tau fibrils [2, 9] [nmol/µmol tau fibrils] | Kd [2, 10] [nM] | logD [3] | Aβ monomers per 1 compound bound (Aβ1-42 fibrils [4]; corresponding to Bmax) [Aβ monomers] | Bmax on Aβ fibrils (Aβ1-42 fibrils [4]; [9]) [nmol/µmol Aβ fibrils] | Kd (Aβ1-42 fibrils [4]) [nM] | Kd α-Syn (α-syn fibrils [1]; [10]) | Kd Tau [2, 10] | Ki [5] [nM] | Ki (Aβ1-42 fibrils [6]) [nM] | reduction of affinity for Aβ versus α-syn and tau fibrils (Aβ1-42 fibrils [7]) [fold] | Ki (α-syn fibrils [8]) [nM] | Kd (α-syn in MSA tissues) [nM]
1 | CN(CCF)c1ccc(C#Cc2cc3cccnc3[nH]2)cc1 [Compound 45] | 7 α-syn monomers | 141.1 ± 45 | 2.4 ± 1 | 20 | 46.6 ± 5.0 | 0.97 ± 0.4 | 2.59 ± 0.141 | 600 | 1.8 ± 0.6 | 1.2 ± 1 |  |  |  |  |  |  | 
2 | CN(C)c1ccc(C#Cc2cc3cccnc3[nH]2)cc1 [Compound 43] |  |  | 0.53 ± 0.2 |  |  | 0.44 ± 0.1 |  |  |  | 11.8 ± 3 | sub-nanomolar | sub-nanomolar | 4.61 ± 0.2 | 24.4 ± 9 | 20 | 4.7 ± 2 | 
3 | O=C1c2cn(-c3ccc(N4CC[C@@H]([18F])C4)nc3)nc2CN1c1cccnc1 [[^18F] ACI-12589] |  |  |  |  |  |  |  |  |  |  |  |  |  |  |  |  | 22 to 30

— article PMC12655733, “Design, Synthesis and Evaluation of the First 2-Alkynyl(aza)indole ^18F Probe Targeting α-Synuclein Aggregates” (Pharmaceuticals, 2025)
